Experiments:
[1] = tested on: Pasteurella haemolytica 3R188 and 6R132; assay: MIC by plate dilution method (horseblood-agar); assay type: cell-based; details: both P. haemolytica isolates; single agent; observed during 24 hours
Procedure: Two clinical isolates of Pasteurella haemolytica were studied. The bacteria were isolated from calves and identified. The isolates included P. haemolytica 3R188 and 6R132.
The strength of the inoculating suspension was 2 MacFarland. The plates were observed during 24 hours after incubation.

[2] = Acute toxicity (general statement); assay type: in vivo; details: in combination with Clindamycin; mammals and humans
[3] = tested on: Mycoplasma hyorhinis type strain BTS-7; assay: MIC by serial broth dilution method (Friis broth, glucose metabolism colour change); assay type: cell-based; details: single agent; read at day 5; 37°C aerobic
Procedure: Friis-broth was added to each well.

## Polymyxin E (Colistin)
[1]
  minimal inhibitory concentrations (MICs): 1,6 µg/ml
[2]
  acute toxicity: strikingly reduced
[3]
  MIC: > 50 µg/mL
